Source: US10759816B2, “Heterocyclic compounds as RSV inhibitors” (Enanta Pharmaceuticals, Inc., priority 2016, dated 2020)

System: genotype A, "Long" strain RSV
Experiment: RSV-A in vitro cytoprotection assay in HEp-2 cells (ATPlite readout of cell viability)
Assay type: cell-based, Human respiratory syncytial virus
Settings: human respiratory syncytial virus, HEp-2, HEp-2 cells, genotype A “Long” strain RSV, cytoprotection; read-out: Human RSV-A (“Long” strain) EC50
Source text: RSV is a single stranded negative sense RNA virus that causes respiratory tract infections which can be dangerous to infants, the elderly, and immunosuppressed individuals. Currently there is no vaccine, and therapeutic options are both costly and of limited effectiveness. These approved treatments are Ribavirin, and Palivizumab/Synagis (a monoclonal antibody). RSV has two genotypes, A and B, which differ primarily in the structure of the virus' surface “G” attachment protein. Our current primary screen focuses on RSV-A and uses an in vitro cytoprotection assay where compounds are added in 2-fold dilutions to cells which are then subjected to fully replicative viral particles. Cell viability is measured several days later along with separate measurements of compound cytotoxicity. This report focuses on the results of our most recent screening of compounds.
HEp-2 cells, (originally derived from tumors grown in irradiated-cortisonised weanling rats that had been injected with epidermoid carcinoma tissue from a person's larynx, but later found to be indistinguishable from HeLa cells by PCR DNA analysis), were used for the culturing of genotype A, “Long” strain RSV. Flasks were inoculated with RSV and viral stocks were collected once cytopathic effect (CPE) was greater than 90%. Viral stocks in 25% sucrose media were snap frozen using liquid nitrogen to increase viral stability. Viral stock titers were quantified by tissue culture infectious dose 50% (TCID50) using 8,000 cells per well and 3-fold viral dilutions across a 96-well plate, cultured for 4 days.
Following extensive parameter testing, the final assay is run as follows: HEp-2 cells are seeded into the inner 60 wells of a 96-well plate at 8,000 cells per well in a volume of 50 μL using Growth Media (DMEM without phenol red, 1% L-Glut, 1% Penn/Strep, 1% nonessential amino acids, 10% FBS). 2-Fold serial dilutions of control and test compounds are added to the wells in duplicate in a total volume of 25 μL. Viral stock is then added to the wells in a volume of 25 μL, bringing the total volume of each well to 100 μL. Each 96-well plate has a control column of 6 wells with cells and virus but no compound (negative control, max CPE), a column with cells but no compound or virus (positive control, minimum CPE), and a column with no cells or virus or compound (background plate/reagent control). The control wells with cells but no virus are given an additional 25 uL of growth media containing an equal quantity of sucrose as those wells receiving the viral stock in order to keep consistent in media and volume conditions. The outer wells of the plate are filled with 125 μL of growth media to act as a thermal and evaporative moat around the test wells. Following a 4-day incubation period, the plates are read using ATPlite (50 uL added per well), which quantifies the amount of ATP (a measure of cell health) present in each well. Assay plates are read using the Envision luminometer. In parallel, cytotoxicity is examined on an additional 96-well plate treated in an identical manner, but substituting the 25 μL of viral stock for 25 μL of growth media. […] EC50 ranges are as follows: A <0.4 μM; B 0.4-0.8 μM; C >0.8 μM.

Structure (SMILES) | EC50 [nM]
O=C(NC1CC1)c1cc2c(s1)-c1ccccc1N(C(=O)c1ccc(CN3CCOCC3)cc1)CC2 [Example 1] | > 800
O=C(NC1CC1)c1cc2c(s1)-c1ccccc1N(C(=O)c1cccc(CN3CCOCC3)c1)CC2 [Example 2] | > 800
O=C(NC1CC1)c1cc2c(s1)-c1ccccc1N(C(=O)c1ccc(N3CCOCC3)cc1)CC2 [Example 3] | > 800
O=C(NC1CC1)c1cc2c(s1)-c1ccccc1N(C(=O)c1cccc(N3CCOCC3)c1)CC2 [Example 4] | > 800
COc1ccc(-c2cccc(C(=O)N3CCc4cc(C(=O)NC5CC5)sc4-c4ccccc43)c2)cc1 [Example 5] | 400 to 800
COc1ccc(-c2cccc(C(=O)N3CCc4cc(C(=O)NC5CC5)sc4-c4ccccc43)c2)cn1 [Example 6] | > 800
N#Cc1ccc(-c2cccc(C(=O)N3CCc4cc(C(=O)NC5CC5)sc4-c4ccccc43)c2)cc1 [Example 7] | 400 to 800
O=C(NC1CC1)c1cc2c(s1)-c1ccccc1N(C(=O)c1ccc(CC(=O)N3CCOCC3)cc1)CC2 [Example 8] | > 800
CS(=O)(=O)N1CCCc2cc(C(=O)N3CCc4cc(C(=O)NC5CC5)sc4-c4ccccc43)ccc21 [Example 9] | > 800
O=C(NC1CC1)c1cc2c(s1)-c1ccccc1N(C(=O)c1ccc3nc(N4CCOCC4)oc3c1)CC2 [Example 10] | > 800
O=C(NC1CC1)c1cc2c(s1)-c1ccccc1N(C(=O)c1ccc3nc(CN4CCOCC4)oc3c1)CC2 [Example 11] | > 800
O=C(NC1CC1)c1cc2c(s1)-c1ccccc1N(C(=O)c1csc(N3CCOCC3)n1)CC2 [Example 12] | 400 to 800
O=C(NC1CC1)c1cc2c(s1)-c1ccccc1N(C(=O)c1ccc3ncn(C4CCOCC4)c3c1)CC2 [Example 13] | > 800
O=C(NC1CC1)c1cc2c(s1)-c1ccccc1N(C(=O)c1ccc3c(c1)ncn3C1CCOCC1)CC2 [Example 14] | > 800
O=C(NC1CC1)c1cc2c(s1)-c1ccccc1N(C(=O)c1ccc(NC(=O)N3CCOCC3c3ccccc3)cc1)CC2 (stereo not drawn) [Example 15] | > 800
O=C(NC1CC1)c1cc2c(s1)-c1ccccc1N(C(=O)c1cccc(N3CCOCC3)n1)CC2 [Example 16] | 400 to 800
O=C(NC1CC1)c1cc2c(s1)-c1ccccc1N(C(=O)c1cccc(N3CCCOCC3)n1)CC2 [Example 17] | < 400
O=C(NC1CC1)c1cc2c(s1)-c1ccccc1N(C(=O)c1cccc(N3CCC4(CC3)COC4)n1)CC2 [Example 18] | 400 to 800
O=C(NC1CC1)c1cc2c(s1)-c1ccccc1N(C(=O)c1cccc(N3CC4(CCOCC4)C3)n1)CC2 [Example 19] | > 800
CC(=O)N1CCN(c2cccc(C(=O)N3CCc4cc(C(=O)NC5CC5)sc4-c4ccccc43)n2)CC1 [Example 20] | 400 to 800
COC1CCN(c2cccc(C(=O)N3CCc4cc(C(=O)NC5CC5)sc4-c4ccccc43)n2)CC1 [Example 21] | 400 to 800
O=C1CN(c2cccc(C(=O)N3CCc4cc(C(=O)NC5CC5)sc4-c4ccccc43)n2)CCN1 [Example 22] | 400 to 800
O=C(NC1CC1)c1cc2c(s1)-c1ccccc1N(C(=O)c1cccc(N3CCC(F)(F)CC3)n1)CC2 [Example 23] | < 400
CC1CN(c2cccc(C(=O)N3CCc4cc(C(=O)NC5CC5)sc4-c4ccccc43)n2)CC(C)O1 (stereo not drawn) [Example 24] | 400 to 800
O=C(NC1CC1)c1cc2c(s1)-c1ccccc1N(C(=O)c1cccc(N3CCC4(CC3)CC4)n1)CC2 [Example 25] | 400 to 800
O=C(NC1CC1)c1cc2c(s1)-c1ccccc1N(C(=O)c1cccc(N3CCC4(CCOCC4)CC3)n1)CC2 [Example 26] | 400 to 800
O=C(NC1CC1)c1cc2c(s1)-c1ccccc1N(C(=O)c1cccc(N3CCN(C4COC4)CC3)n1)CC2 [Example 27] | 400 to 800

Structure (SMILES) | EC50 [nM]
O=C(NC1CC1)c1cc2c(s1)-c1ccccc1N(C(=O)c1cccc(N3CC4CCC(C3)O4)n1)CC2 [Example 28] | < 400
O=C(NC1CC1)c1cc2c(s1)-c1ccccc1N(C(=O)c1cccc(N3C4CCC3COC4)n1)CC2 [Example 29] | 400 to 800
O=C(NC1CC1)c1cc2c(s1)-c1ccccc1N(C(=O)c1cccc(N3CCC(c4ccccc4)CC3)n1)CC2 [Example 30] | > 800
O=C(NC1CC1)c1cc2c(s1)-c1ccccc1N(C(=O)c1cccc(N3CCc4ccccc4CC3)n1)CC2 [Example 31] | > 800
O=C(NC1CC1)c1cc2c(s1)-c1ccccc1N(C(=O)c1cccc(N3CCOc4ccccc4C3)n1)CC2 [Example 32] | < 400
COCCNc1cccc(C(=O)N2CCc3cc(C(=O)NC4CC4)sc3-c3ccccc32)n1 [Example 33] | 400 to 800
COCCN(C)c1cccc(C(=O)N2CCc3cc(C(=O)NC4CC4)sc3-c3ccccc32)n1 [Example 34] | 400 to 800
COCCCNc1cccc(C(=O)N2CCc3cc(C(=O)NC4CC4)sc3-c3ccccc32)n1 [Example 35] | 400 to 800
CN1CCCN(c2cccc(C(=O)N3CCc4cc(C(=O)NC5CC5)sc4-c4ccccc43)n2)CC1 [Example 36] | 400 to 800
N[C@H]1CCN(c2cccc(C(=O)N3CCc4cc(C(=O)NC5CC5)sc4-c4ccccc43)n2)C1 [Example 37] | > 800
N[C@@H]1CCN(c2cccc(C(=O)N3CCc4cc(C(=O)NC5CC5)sc4-c4ccccc43)n2)C1 [Example 38] | > 800
COc1ccc(C(=O)N2CCc3cc(C(=O)NC4CC4)sc3-c3ccccc32)nc1N1CCOCC1 [Example 39] | > 800
COc1ccc(C(=O)N2CCc3cc(C(=O)NC4CC4)sc3-c3ccccc32)nc1N1CCCOCC1 [Example 40] | 400 to 800
O=C(NC1CC1)c1cc2c(s1)-c1ccccc1N(C(=O)c1ccc(Cl)c(N3CCOCC3)n1)CC2 [Example 42] | 400 to 800
O=C(NC1CC1)c1cc2c(s1)-c1ccccc1N(C(=O)c1ccc(Cl)c(N3CCCOCC3)n1)CC2 [Example 43] | 400 to 800
O=C(NC1CC1)c1cc2c(s1)-c1ccccc1N(C(=O)c1ccc(F)c(N3CCOCC3)n1)CC2 [Example 44] | 400 to 800
O=C(NC1CC1)c1cc2c(s1)-c1ccccc1N(C(=O)c1ccc(F)c(N3CCCOCC3)n1)CC2 [Example 45] | < 400
O=C(NC1CC1)c1cc2c(s1)-c1ccccc1N(C(=O)c1ccnc(N3CCOCC3)c1)CC2 [Example 46] | > 800
O=C(NC1CC1)c1cc2c(s1)-c1ccccc1N(C(=O)c1cncc(N3CCOCC3)c1)CC2 [Example 47] | > 800
O=C(NC1CC1)c1cc2c(s1)-c1ccccc1N(C(=O)c1cc(N3CCOCC3)ccn1)CC2 [Example 48] | > 800
O=C(NC1CC1)c1cc2c(s1)-c1ccccc1N(C(=O)c1cc(N3CCOCC3)ncn1)CC2 [Example 49] | > 800
O=C(NC1CC1)c1cc2c(s1)-c1ccccc1N(C(=O)c1cc(N3CCCOCC3)ncn1)CC2 [Example 50] | > 800
O=C(NC1CC1)c1cc2c(s1)-c1ccccc1N(C(=O)c1ccnc(N3CCOCC3)n1)CC2 [Example 51] | 400 to 800
O=C(NC1CC1)c1cc2c(s1)-c1ccccc1N(C(=O)c1ccnc(N3CCCOCC3)n1)CC2 [Example 52] | 400 to 800
O=C(NC1CC1)c1cc2c(s1)-c1ccccc1N(C(=O)c1cncc(N3CCOCC3)n1)CC2 [Example 53] | 400 to 800
O=C(NC1CC1)c1cc2c(s1)-c1ccccc1N(C(=O)c1cccc(C3=CCNCC3)n1)CC2 [Example 54] | > 800
O=C(NC1CC1)c1cc2c(s1)-c1ccccc1N(C(=O)c1cccc(C3CCNCC3)n1)CC2 [Example 55] | > 800
